In general, IC50 refers to the midpoint of a concentration-inhibition curve.

A value given as a limit tells only on which side of the number the result lay.

In US20230348418A1, “ISOINDOLINONE COMPOUNDS” (Monte Rosa Therapeutics, Inc., priority 2021, published 2023) one finds IC50 data, which are given here for 34 compounds.

For the first assay, the target named is T1, Full length wild-type cereblon CRBN (Homo sapiens, UniProt Q96SW2).
T1 construct: Full length wild-type cereblon CRBN (80.0 nM, 10 μL) was incubated in assay buffer
T1 sequence (Q96SW2 whole entry): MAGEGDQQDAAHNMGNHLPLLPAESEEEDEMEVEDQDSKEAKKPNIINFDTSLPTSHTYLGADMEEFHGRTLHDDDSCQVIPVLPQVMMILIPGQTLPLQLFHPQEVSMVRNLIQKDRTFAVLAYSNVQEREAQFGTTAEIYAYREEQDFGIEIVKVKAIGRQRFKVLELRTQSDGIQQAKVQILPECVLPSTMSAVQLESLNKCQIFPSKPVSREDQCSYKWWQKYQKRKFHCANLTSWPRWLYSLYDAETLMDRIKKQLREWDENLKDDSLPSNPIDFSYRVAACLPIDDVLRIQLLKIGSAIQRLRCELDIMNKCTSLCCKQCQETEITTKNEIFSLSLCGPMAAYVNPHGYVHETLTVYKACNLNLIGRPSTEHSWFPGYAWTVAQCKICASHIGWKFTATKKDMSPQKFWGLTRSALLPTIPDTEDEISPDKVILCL
The assay is described as follows: Fluorescence polarization (FP) assay, cereblon binding. Particulars: bounds stated in the text lists b2059-b2061; read-out: IC50 value. An outline of the steps: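 Full-length wild-type human CRBN (80.0 nM) was preincubated with compound for 30 min at room temperature in 20 mM HEPES pH 8.0, 150 NaCl, 0.5 mM TCEP and 0.05% Tween 20. A Cy5-type thalidomide-linked fluorescent probe was then added. The FP signal was normalized to the DMSO control to derive IC50.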
(In fluorescence polarisation assays a small probe gives low polarisation when free and higher when bound to something large.)
Consider `C[C@@H]1CCCN1c1ccc(NC(=O)OCc2ccc3c(c2)C(=O)N(C2CCC(=O)NC2=O)C3)cn1` (stereo partly drawn) [Compound 157, (2-(2,6-dioxopiperidin-3-yl)-3-oxoisoindolin-5-yl)methyl (6-((R)-2-methylpyrrolidin-1-yl)pyridin-3-yl)carbamate], for which the IC50 was below 1100 nM.

The target in a further assay is CRBN-DDB1 (Homo sapiens, UniProt Q96SW2). Kind of assay: HTRF binding of compounds to CRBN.
CRBN-DDB1, sequence (Q96SW2 whole entry): as above
CRBN-DDB1, sequence (Q16531 whole entry partner): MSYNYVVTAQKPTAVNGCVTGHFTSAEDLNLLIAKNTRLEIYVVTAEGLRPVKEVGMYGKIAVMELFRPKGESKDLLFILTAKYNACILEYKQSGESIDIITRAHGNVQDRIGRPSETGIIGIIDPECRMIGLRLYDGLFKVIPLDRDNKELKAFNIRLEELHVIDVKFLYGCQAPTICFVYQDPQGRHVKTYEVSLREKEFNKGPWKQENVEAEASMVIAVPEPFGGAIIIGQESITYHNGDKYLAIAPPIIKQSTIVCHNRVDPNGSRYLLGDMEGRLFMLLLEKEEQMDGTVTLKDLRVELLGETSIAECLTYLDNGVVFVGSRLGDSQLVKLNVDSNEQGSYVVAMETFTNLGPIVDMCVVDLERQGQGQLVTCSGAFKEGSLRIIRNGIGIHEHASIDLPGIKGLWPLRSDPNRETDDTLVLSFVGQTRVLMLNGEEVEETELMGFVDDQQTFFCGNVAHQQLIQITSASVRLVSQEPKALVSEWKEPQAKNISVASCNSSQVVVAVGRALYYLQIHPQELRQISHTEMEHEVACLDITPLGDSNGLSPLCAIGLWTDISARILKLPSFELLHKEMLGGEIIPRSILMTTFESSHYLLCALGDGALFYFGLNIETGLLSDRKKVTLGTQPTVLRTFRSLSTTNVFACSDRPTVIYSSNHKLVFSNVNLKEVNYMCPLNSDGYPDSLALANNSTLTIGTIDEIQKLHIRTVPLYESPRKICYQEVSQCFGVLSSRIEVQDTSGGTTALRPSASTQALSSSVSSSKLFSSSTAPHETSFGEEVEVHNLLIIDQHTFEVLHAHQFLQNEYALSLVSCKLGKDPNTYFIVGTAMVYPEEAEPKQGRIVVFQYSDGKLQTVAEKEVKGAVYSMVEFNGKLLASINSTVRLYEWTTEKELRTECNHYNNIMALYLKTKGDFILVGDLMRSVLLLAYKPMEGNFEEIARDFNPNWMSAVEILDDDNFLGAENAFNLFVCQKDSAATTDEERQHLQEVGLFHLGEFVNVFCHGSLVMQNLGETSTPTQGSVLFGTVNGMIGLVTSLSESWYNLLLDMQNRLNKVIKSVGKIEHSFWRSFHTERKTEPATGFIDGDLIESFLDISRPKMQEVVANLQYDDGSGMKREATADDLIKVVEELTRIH
Details: not given
The procedure: Compound activity was monitored in a Homogenous Time-Resolved Fluorescence (HTRF) assay using 1-[5-({2-[2-(2-{[2-(2,6-dioxopiperidin-3-yl)-1,3-dioxo-2,3-dihydro-1H-isoindol-4-yl]oxy}acetamido)ethoxy]ethyl}carbamoyl)pentyl]-3,3-dimethyl-2-[(1E,3E)-5-[(2E)-1,3,3-trimethyl-5-sulfo-2,3-dihydro-1H-indol-2-ylidene]penta-1,3-dien-1-yl]-3H-indol-1-ium-5-sulfonate as a fluorescent probe. […] Compounds were stored in dry, ambient temperatures at 10 mM. A 10-point, 1:3 dilution series was prepared from 10 mM stock concentrations in Echo-compatible LDV plates. 10 nL of each compound dilution series was dispensed into assays wells using an Echo 650 (Labcyte inc. USA). […] The assay was then allowed to incubate for 30 min at ambient temperature after transferring compound. […] Analysis and IC50 values were derived using KNIME analytics (KNIME Zurich) transformation and fitting within Collaborative Drug Discovery (Collaborative Drug Discovery USA). Ki was derived from the geometric mean of the IC50 values using the Cheng-Prustoff transformation.
For orientation: TR-FRET usually uses a lanthanide donor and a delayed reading to cut background.
`O=C1CCC(N2Cc3ccc(COC(=O)NC4CN(c5ccccc5)C4)cc3C2=O)C(=O)N1` (stereo not shown) [Compound 167]: the IC50 was below 100 nM. Still for that read-out and setting: as for `O=C1CCC(N2Cc3ccc(COC(=O)NC4CN(Cc5ccccc5)C4)cc3C2=O)C(=O)N1` (stereo not shown) [Compound 168], the figure is 100 to 1000 nM; as for `O=C1CCC(N2Cc3ccc(COC(=O)Nc4cccc(OC(F)(F)F)c4F)cc3C2=O)C(=O)N1` (stereo not shown) [Compound 169], 100 to 1000 nM.

For the compound `O=C1CCC(N2Cc3ccc(COC(=O)Nc4cccc5c4OCC5)cc3C2=O)C(=O)N1` (stereo not shown) [Compound 173], the IC50 lay in the range of 100 to 1000 nM. `Cc1cc(NC(=O)OCc2ccc3c(c2)C(=O)N(C2CCC(=O)NC2=O)C3)cc(Cl)c1C#N` (stereo not shown) [Compound 177, (2-(2,6-dioxopiperidin-3-yl)-3-oxoisoindolin-5-yl)methyl(3-chloro-4-cyano-5-methylphenyl)carbamate] came in with an IC50 of 100 to 1000 nM.

The compound `Cc1cc2c(c(NC(=O)OCc3ccc4c(c3)C(=O)N(C3CCC(=O)NC3=O)C4)c1)OCC2` (stereo not shown) [Compound 182] gave an IC50 of 100 to 1000 nM.

Compound `Cc1cc(NC(=O)OCc2ccc3c(c2)C(=O)N(C2CCC(=O)NC2=O)C3)cc(C#N)c1C` (stereo not shown) [Compound 186] returned an IC50 of 100 to 1000 nM. Same read-out and setting: as for `O=C1CCC(N2Cc3ccc(COC(=O)Nc4cc(Cl)cc5c4OCC5)cc3C2=O)C(=O)N1` (stereo not shown) [Compound 189], the figure is below 100 nM; as for `O=C1CCC(N2Cc3ccc(COC(=O)NC45CC(F)(C4)C5)cc3C2=O)C(=O)N1` (stereo not shown) [Compound 190], 100 to 1000 nM; as for `C[C@@H]1CCCN1c1ccc(NC(=O)OCc2ccc3c(c2)C(=O)N(C2CCC(=O)NC2=O)C3)nc1` (stereo partly shown) [Compound 192], below 100 nM.

On to `O=C1CCC(N2Cc3ccc(COC(=O)NC45CC(N6CCCCC6)(C4)C5)cc3C2=O)C(=O)N1` (stereo not shown) [Compound 198], for which the IC50 lay in the range of 100 to 1000 nM.

The assay is the same for the next values; noted with them: read-out: HTRF Class (Cereblon binding, HTRF IC50).
For the compound `O=C1CCC(N2Cc3ccc(COC(=O)Nc4cc(Cl)ccc4F)cc3C2=O)C(=O)N1` (stereo not shown) [Compound 163, (2-(2,6-dioxopiperidin-3-yl)-3-oxoisoindolin-5-yl)methyl (5-chloro-2-fluorophenyl)carbamate], the IC50 was 100 to 1000 nM. For `O=C1CCC(N2Cc3ccc(COC(=O)Nc4ccc(C5CCC5)cc4F)cc3C2=O)C(=O)N1` (stereo not shown) [Compound 164, (2-(2,6-dioxopiperidin-3-yl)-3-oxoisoindolin-5-yl)methyl (4-cyclobutyl-2-fluorophenyl)carbamate], the IC50 was 100 to 1000 nM. On the same count and under the same terms, as for `Cc1cc(F)c(NC(=O)OCc2ccc3c(c2)C(=O)N(C2CCC(=O)NC2=O)C3)c(F)c1` (stereo not shown) [Compound 166, (2-(2,6-dioxopiperidin-3-yl)-3-oxoisoindolin-5-yl)methyl (2,6-difluoro-4-methylphenyl)carbamate], the figure is below 100 nM; as for `CC(C)(C)c1cccc(NC(=O)OCc2ccc3c(c2)C(=O)N(C2CCC(=O)NC2=O)C3)n1` (stereo not shown) [Compound 170, (2-(2,6-dioxopiperidin-3-yl)-3-oxoisoindolin-5-yl)methyl (6-(tert-butyl)pyridin-2-yl)carbamate], 100 to 1000 nM; as for `O=C1CCC(N2Cc3ccc(COC(=O)NC45CC(c6ccccc6F)(C4)C5)cc3C2=O)C(=O)N1` (stereo not shown) [Compound 174, (2-(2,6-dioxopiperidin-3-yl)-3-oxoisoindolin-5-yl)methyl (3-(2-fluorophenyl)bicyclo[1.1.1]pentan-1-yl) carbamate], below 100 nM.

Turning to `Cc1ccc(NC(=O)OCc2ccc3c(c2)C(=O)N(C2CCC(=O)NC2=O)C3)c(F)c1Cl` (stereo not shown) [Compound 179, (2-(2,6-dioxopiperidin-3-yl)-3-oxoisoindolin-5-yl) methyl (3-chloro-2-fluoro-4-methylphenyl)carbamate], the IC50 was 100 to 1000 nM. Same read-out and setting: as for `Cc1ccc(NC(=O)OCc2ccc3c(c2)C(=O)N(C2CCC(=O)NC2=O)C3)nc1Cl` (stereo not shown) [Compound 183, (2-(2,6-dioxopiperidin-3-yl)-3-oxoisoindolin-5-yl)methyl (6-chloro-5-methylpyridin-2-yl)carbamate], the figure is 100 to 1000 nM; as for `CC(C)(C)[C@H]1C[C@@H](NC(=O)OCc2ccc3c(c2)C(=O)N(C2CCC(=O)NC2=O)C3)C1` (stereo partly drawn) [Compound 184, cis-(2-(2,6-dioxopiperidin-3-yl)-3-oxoisoindolin-5-yl)methyl ((1s,3s)-3-(tert-butyl)cyclobutyl)carbamate], 100 to 1000 nM; as for `CC(C)(C)[C@H]1C[C@H](NC(=O)OCc2ccc3c(c2)C(=O)N(C2CCC(=O)NC2=O)C3)C1` (stereo partly drawn) [Compound 185, trans-(2-(2,6-dioxopiperidin-3-yl)-3-oxoisoindolin-5-yl)methyl ((1s,3s)-3-(tert-butyl)cyclobutyl)carbamate], 100 to 1000 nM.

In the case of `O=C1CCC(N2Cc3ccc(COC(=O)Nc4ccc(F)c(OC(F)F)c4F)cc3C2=O)C(=O)N1` (stereo not shown) [Compound 191, (2-(2,6-dioxopiperidin-3-yl)-3-oxoisoindolin-5-yl)methyl (3-(difluoromethoxy)-2,4-difluorophenyl) carbamate], the IC50 was 100 to 1000 nM. Same read-out and setting: as for `O=C1CCC(N2Cc3ccc(COC(=O)NC45CC(C4)C5)cc3C2=O)C(=O)N1` (stereo not shown) [Compound 193, (2-(2,6-dioxopiperidin-3-yl)-3-oxoisoindolin-5-yl)methyl bicyclo[1.1.1]pentan-1-ylcarbamate], the figure is 100 to 1000 nM; as for `Cc1cc(NC(=O)OCc2ccc3c(c2)C(=O)N(C2CCC(=O)NC2=O)C3)ncc1N1CCCC1` (stereo not shown) [Compound 194, (2-(2,6-dioxopiperidin-3-yl)-3-oxoisoindolin-5-yl)methyl (4-methyl-5-(pyrrolidin-1-yl)pyridin-2-yl) carbamate], 100 to 1000 nM. The same measure, in the same setting: as for `CC(C)(O)c1ccc(NC(=O)OCc2ccc3c(c2)C(=O)N(C2CCC(=O)NC2=O)C3)cc1` (stereo not shown) [Compound 195, (2-(2,6-dioxopiperidin-3-yl)-3-oxoisoindolin-5-yl)methyl (4-(2-hydroxypropan-2-yl)phenyl)carbamate], the figure is 100 to 1000 nM.

On to `Cc1cc(F)c(NC(=O)OCc2ccc3c(c2)C(=O)N(C2CCC(=O)NC2=O)C3)cc1Br` (stereo not shown) [Compound 197, (2-(2,6-dioxopiperidin-3-yl)-3-oxoisoindolin-5-yl)methyl (5-bromo-2-fluoro-4-methylphenyl)carbamate], for which the IC50 was below 100 nM. Same read-out and setting: as for `CC(C)(O)c1ccc(NC(=O)OCc2ccc3c(c2)C(=O)N(C2CCC(=O)NC2=O)C3)cn1` (stereo not shown) [Compound 199, (2-(2,6-dioxopiperidin-3-yl)-3-oxoisoindolin-5-yl)methyl (6-(2-hydroxypropan-2-yl)pyridin-3-yl)carbamate], the figure is 100 to 1000 nM; as for `O=C1CCC(N2Cc3ccc(COC(=O)Nc4cc(OC(F)(F)F)c(F)cc4F)cc3C2=O)C(=O)N1` (stereo not shown) [Compound 200, (2-(2,6-dioxopiperidin-3-yl)-3-oxoisoindolin-5-yl)methyl (2,4-difluoro-5-(trifluoromethoxy)phenyl)carbamate], 100 to 1000 nM. On to `Cc1cc(F)c(NC(=O)OCc2ccc3c(c2)C(=O)N(C2CCC(=O)NC2=O)C3)cc1OC(F)F` (stereo not shown) [Compound 201, (2-(2,6-dioxopiperidin-3-yl)-3-oxoisoindolin-5-yl) methyl (5-(difluoromethoxy)-2-fluoro-4-methylphenyl)carbamate], for which the IC50 lay in the range of 100 to 1000 nM. Same read-out and setting: as for `O=C1CCC(N2Cc3ccc(COC(=O)NC45CC(CF)(C4)C5)cc3C2=O)C(=O)N1` (stereo not shown) [Compound 202, (2-(2,6-dioxopiperidin-3-yl)-3-oxoisoindolin-5-yl)methyl (3-(fluoromethyl)bicyclo[1.1.1]pentan-1-yl) carbamate], the figure is 100 to 1000 nM; as for `COC(=O)C12CC(NC(=O)OCc3ccc4c(c3)C(=O)N(C3CCC(=O)NC3=O)C4)(C1)C2` (stereo not shown) [Compound 203, methyl 3-((((2-(2,6-dioxopiperidin-3-yl)-3-oxoisoindolin-5-yl)methoxy)carbonyl)amino)bicyclo[1.1.1]pentane-1-carboxylate], 100 to 1000 nM; as for `Cc1cc(F)c(NC(=O)OCc2ccc3c(c2)C(=O)N(C2CCC(=O)NC2=O)C3)cc1OC(F)(F)F` (stereo not shown) [Compound 204, (2-(2,6-dioxopiperidin-3-yl)-3-oxoisoindolin-5-yl) methyl (2-fluoro-4-methyl-5-(trifluoromethoxy)phenyl)carbamate], 100 to 1000 nM.

Take `O=C1CCC(N2Cc3ccc(COC(=O)Nc4cc(F)c(OC(F)F)c(F)c4)cc3C2=O)C(=O)N1` (stereo not shown) [Compound 206, (2-(2,6-dioxopiperidin-3-yl)-3-oxoisoindolin-5-yl) methyl (4-(difluoromethoxy)-3,5-difluorophenyl)carbamate]: the IC50 fell in the range of 100 to 1000 nM. The same measure, in the same setting: as for `O=C1CCC(N2Cc3ccc(COC(=O)Nc4cc(C5CC5)ccc4F)cc3C2=O)C(=O)N1` (stereo not shown) [Compound 207, (2-(2,6-dioxopiperidin-3-yl)-3-oxoisoindolin-5-yl)methyl (5-cyclopropyl-2-fluorophenyl) carbamate], the figure is below 100 nM.
